Converted amounts (≈) assume the structure as drawn.
Experiments:
Type in all cases: functional
P388 [1] = test: In vivo antitumor activity against mouse P388 cells at 1 mg/kg relative to control
P388 [2] = test: In vivo antitumor activity against mouse P388 cells at 0.75 mg/kg relative to control
KB = test: Cytotoxicity against human KB cells; conditions: read-out: ED50 (the source's name)

Compound: C=C1CC[C@]2(C)CC[C@]3(C)C4=CC=C5C(=CC(=O)C(O)=C5C)[C@]4(C)CC[C@@]3(C)[C@@H]2C1 [ISOIGUESTERIN]
- T/C (P388 [1]): 147%
- T/C (P388 [2]): 125%
- EC50 (KB): 0.24 µg/mL (≈ 0.593 µM)

Reference: ChEMBL document CHEMBL1151372, “Isoiguesterin, a new antileukemic bisnortriterpene from Salacia madagascariensis” (1981)
